Molecular target: T1, XynB2 (Geobacillus stearothermophilus, UniProt Q09LZ0, Y509E)
T1 construct: recombinant in E. coli C43 from plasmid pJAVI100 (template pJAVI91); semi-purified by heat treatment (45 °C, 30 min) and dialysis; all rows Y509E
Test: p-nitrophenol release at […] nm, hyperbolic fit
Type: biochemical
Settings: free semi-purified (heat-treated extract) enzyme; 100 mM citrate phosphate-glycine buffer, pH 6.5, 50 °C

T1 sequence (Q09LZ0 entry or part of it Y509E): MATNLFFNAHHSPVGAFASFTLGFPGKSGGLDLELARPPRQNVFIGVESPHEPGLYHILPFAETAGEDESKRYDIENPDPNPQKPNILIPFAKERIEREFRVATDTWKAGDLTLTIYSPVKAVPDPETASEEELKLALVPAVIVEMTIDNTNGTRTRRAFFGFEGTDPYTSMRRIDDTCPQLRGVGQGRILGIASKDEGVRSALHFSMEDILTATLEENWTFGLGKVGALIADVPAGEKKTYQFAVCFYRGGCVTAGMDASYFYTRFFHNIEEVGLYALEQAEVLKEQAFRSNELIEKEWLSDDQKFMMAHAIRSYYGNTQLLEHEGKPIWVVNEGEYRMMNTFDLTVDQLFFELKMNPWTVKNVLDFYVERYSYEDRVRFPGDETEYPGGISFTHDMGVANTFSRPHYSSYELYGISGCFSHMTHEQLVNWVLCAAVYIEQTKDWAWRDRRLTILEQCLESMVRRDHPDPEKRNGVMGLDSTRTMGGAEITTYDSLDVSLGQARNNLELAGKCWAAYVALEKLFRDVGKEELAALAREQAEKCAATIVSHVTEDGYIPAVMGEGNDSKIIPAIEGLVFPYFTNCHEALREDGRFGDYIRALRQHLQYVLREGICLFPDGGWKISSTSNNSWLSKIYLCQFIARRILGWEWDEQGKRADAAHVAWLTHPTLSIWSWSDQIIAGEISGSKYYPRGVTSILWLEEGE

- Km: 900 ± 100 µM
Compound: O=[N+]([O-])c1ccc(O[C@@H]2OC[C@@H](O)[C@H](O)[C@H]2O)cc1 [p-nitrophenyl-β-d-xylopyranoside]

From publication PMC7830863, “Characterization of Cross-Linked Enzyme Aggregates of the Y509E Mutant of a Glycoside Hydrolase Family 52 β-xylosidase from G. stearothermophilus” (Molecules, 2021)
